According to patent US11384099B2, “Pyrazolopyridinone compounds” (Janssen Pharmaceutica NV, priority 2017, dated 2022):

How the values were obtained:
[1] = test system: NIH/3T3 cells transfected with control vector (MOCK); assay: NIH/3T3 mock cell proliferation assay (CTG, counter assay); assay type: cell-based; details: Mus musculus, NIH3T3; 72-hr incubation, CellTiter Glo; counter assay for general toxicity
Experimental: NIH/3T3 Mock Cell Proliferation Assay
(§1) In day 1, 90 μL of cell suspension (NIH/3T3 cells transfected with the same control vector as in the above two proliferation assays) (total 30,000 cells per well in growth medium (DMEM containing 1% Glutamax, 10% FBS and 1% Pen/Strep)) was seeded in a 96-well plate and then incubated overnight at 37° C. and 5% CO2. In day 2, 10 μL of growth medium containing 10-fold stock solution of testing compound was added into cell cultures (9 dose points with 3× serial dilution, starting with 30 μM, 0.3% DMSO final). After 72-hr incubation at 37° C. and 5% CO2, in day 5 a volume of 50 μL CellTiter Glo (CTG) reagent was added into cell-containing 96-well plate and the plate was incubated at room temperature for 10 minutes before RLUs (relative light unit) were measured on a microplate reader with luminescence detection module. The RLU value was normalized to survival % and concentration-response curve was plotted using Prism to calculate IC50 (M), pIC50 (−log IC50) and HillSlope value.

[2] = test system: NIH/3T3 cells overexpressing FGFR3 WT-TACC3 fusion protein; assay: NIH/3T3 FGFR3 WT-TACC3 cellular phospho-ERK assay (in vitro PD assay); assay type: cell-based; details: Mus musculus, NIH3T3; 1-hr incubation, AlphaLISA SureFire Ultra p-ERK1/2; read-out: NIH/3T3 FGFR3 WT-TACC3 pERK (IC50)
Experimental: NIH/3T3 FGFR3 WT-TACC3 Cellular Phospho-ERK Assay (In Vitro PD Assay)
(§2) 50 uL of cell suspension (NIH/3T3 cells overexpressing FGFR3 WT-TACC3 fusion protein) (total 10,000 cells per well in growth medium (DMEM containing 1% Glutamax, 10% FBS and 1% Pen/Strep)) was seeded in a 384-well plate. After overnight incubation at 37° C. and 5% CO2, 5.5 μL of growth medium containing 10× testing compound was added into cell cultures (10 dose points with 4× serial dilution, starting with 10 μM, 0.1% DMSO final). After 1-hr incubation at 37° C. and 5% CO2, the medium was depleted and AlphaLISA SureFire Ultra p-ERK1/2 (Thr202/Tyr204) Assay Kit (from PerkinElmer) was applied for phospho-ERK level detection according to the kit instructions. The RFUs (relative fluorescence units were measured on EnVision microplate reader (ex. 680 nm, em. 615 nm) and concentration-response curve was plotted using Prism to calculate IC50 (M), pIC50 (−log IC50) and HillSlope value.

[3] = test system: NIH/3T3 cells overexpressing FGFR3 V555M-TACC3 fusion protein; assay: NIH/3T3 FGFR3 V555M-TACC3 cellular phospho-ERK assay (in vitro PD assay); assay type: cell-based; details: Mus musculus, NIH3T3; 1-hr incubation, AlphaLISA SureFire Ultra p-ERK1/2; read-out: NIH/3T3 FGFR3 V555M-TACC3 pERK (IC50)
Experimental: NIH/3T3 FGFR3 V555M-TACC3 Cellular Phospho-ERK Assay (In Vitro PD Assay)
as §2, with “μL” for “uL”, “V555M-TACC3” for “WT-TACC3”

[4] = target: T1, NIH/3T3 cells overexpressing FGFR3 V555M-TACC3 fusion protein (Homo sapiens, UniProt P22607, V555M, cells depend on it); assay: NIH/3T3 FGFR3 V555M-TACC3 cell proliferation assay (CTG); assay type: cell-based; details: 72-hr incubation, CellTiter Glo; read-out: NIH/3T3 FGFR3 V555M-TACC3 CTG (IC50)
T1 construct: NIH/3T3 FGFR3 V555M-TACC3 CTG (IC50); other: 72-hr incubation, CellTiter Glo; fused on or other part: C-terminal coiled-coil part of TACC3 (part of the key, as a fusion known from patients); Q9Y6A5 (Transforming acidic coiled-coil-containing protein 3)
Experimental: NIH/3T3 FGFR3 V555M-TACC3 Cell Proliferation Assay
as §1, with “cells overexpressing FGFR3 V555M-TACC3 fusion protein)” for “cells transfected with the same control vector as in the above two proliferation assays)”, “with 4×” for “with 3×”, “with 10” for “with 30”, “μM, 0.1%” for “μM, 0.3%”

[5] = target: T2, human FGFR3 wild type enzyme (cytoplasmic domain) (Homo sapiens, UniProt P22607); assay: FGFR3 wild type mobility shift assay (enzymatic assay, Caliper); assay type: biochemical; details: 75 μM ATP, 50 minutes at 30° C.
T2 construct: human FGFR3 wild type enzyme (cytoplasmic domain, from Cama Biosciences); purchased Carna Biosciences
Outline: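 Cytoplasmic-domain FGFR3 (0.04 ng/μL) reacted with 75 μM ATP and 1 μM FL-peptide 30 in HEPES pH 7.4/MgCl2/Brij35/DTT buffer, 1% DMSO final. Incubation 50 min at 30° C, EDTA stop; substrate phosphorylation read by microfluidic mobility shift.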

[6] = target: T3, human FGFR3 V555M enzyme (cytoplasmic domain carrying V555M mutation) (Homo sapiens, UniProt P22607, V555M); assay: FGFR3 V555M mobility shift assay (enzymatic assay, Caliper); assay type: biochemical; details: 30 μM ATP, 45 minutes at 30° C.
T3 construct: cytoplasmic domain carrying V555M mutation, from Carna Biosciences; purchased Carna Biosciences
Outline: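 Cytoplasmic-domain human FGFR3 V555M (0.04 ng/μL) reacted with 30 μM ATP and 1 μM FL-peptide 30 in HEPES pH 7.4, MgCl2, Brij35, DTT, 1% DMSO final. Incubation 45 min at 30 °C, stopped with EDTA. Substrate/product separated and read by mobility shift on a Caliper EZ reader II.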

[7] = target: T4, NIH/3T3 cells overexpressing FGFR3 WT-TACC3 fusion protein (Homo sapiens, UniProt P22607); assay: NIH/3T3 FGFR3 WT-TACC3 cell proliferation assay (CTG); assay type: cell-based; details: 72-hr incubation, CellTiter Glo; read-out: NIH/3T3 FGFR3 WT-TACC3 CTG (IC50)
T4 construct: NIH/3T3 FGFR3 WT-TACC3 CTG (IC50); other: 72-hr incubation, CellTiter Glo; fused on or other part: C-terminal coiled-coil part of TACC3 (part of the key, as a fusion known from patients); Q9Y6A5 (Transforming acidic coiled-coil-containing protein 3)
Experimental: NIH/3T3 FGFR3 WT-TACC3 Cell Proliferation Assay
as §1, with “cells overexpressing FGFR3 WT-TACC3 fusion protein)” for “cells transfected with the same control vector as in the above two proliferation assays)”, “with 4×” for “with 3×”, “with 10” for “with 30”, “μM, 0.1%” for “μM, 0.3%”

T3 sequence (P22607 397-806 V555M limits assumed): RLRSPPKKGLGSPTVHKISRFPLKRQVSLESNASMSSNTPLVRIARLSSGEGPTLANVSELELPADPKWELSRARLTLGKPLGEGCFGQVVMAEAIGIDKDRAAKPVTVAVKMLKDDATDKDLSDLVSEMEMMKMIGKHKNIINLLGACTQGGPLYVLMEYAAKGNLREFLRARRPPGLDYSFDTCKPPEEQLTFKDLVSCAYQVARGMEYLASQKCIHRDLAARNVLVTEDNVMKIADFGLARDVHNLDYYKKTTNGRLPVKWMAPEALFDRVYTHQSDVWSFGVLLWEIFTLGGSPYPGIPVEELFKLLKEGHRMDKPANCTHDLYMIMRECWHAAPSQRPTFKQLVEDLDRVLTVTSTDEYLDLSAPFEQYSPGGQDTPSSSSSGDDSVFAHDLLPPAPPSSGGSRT
T4 sequence (P22607 whole entry, change not shown, the tested form may be a part): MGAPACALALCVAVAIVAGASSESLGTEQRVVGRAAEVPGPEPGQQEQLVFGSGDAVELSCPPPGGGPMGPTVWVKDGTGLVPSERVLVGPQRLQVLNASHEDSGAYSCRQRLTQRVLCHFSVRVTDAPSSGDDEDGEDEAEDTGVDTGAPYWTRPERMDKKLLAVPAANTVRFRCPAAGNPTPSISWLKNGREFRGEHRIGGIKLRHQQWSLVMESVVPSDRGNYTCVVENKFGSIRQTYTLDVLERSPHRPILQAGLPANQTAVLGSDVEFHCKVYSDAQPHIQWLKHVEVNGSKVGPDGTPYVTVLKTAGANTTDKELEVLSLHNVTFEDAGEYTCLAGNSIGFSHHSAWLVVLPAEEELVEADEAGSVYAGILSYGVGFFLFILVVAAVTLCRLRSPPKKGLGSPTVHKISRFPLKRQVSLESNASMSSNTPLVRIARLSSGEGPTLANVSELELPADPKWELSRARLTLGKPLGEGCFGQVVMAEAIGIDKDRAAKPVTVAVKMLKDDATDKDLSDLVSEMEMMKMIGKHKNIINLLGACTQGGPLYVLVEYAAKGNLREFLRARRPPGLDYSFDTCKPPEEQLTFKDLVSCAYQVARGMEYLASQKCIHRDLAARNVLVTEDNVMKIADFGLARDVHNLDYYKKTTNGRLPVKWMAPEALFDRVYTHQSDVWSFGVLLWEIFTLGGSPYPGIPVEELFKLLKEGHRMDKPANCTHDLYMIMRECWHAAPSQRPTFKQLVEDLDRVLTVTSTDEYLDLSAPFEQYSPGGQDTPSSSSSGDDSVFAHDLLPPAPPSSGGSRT
T2 sequence (P22607 397-806 limits assumed): as the sequence (P22607 397-806 V555M limits assumed) above, with M159V counted along it
T1 sequence (P22607 whole entry V555M, the tested form may be a part): as the sequence (P22607 whole entry, change not shown, the tested form may be a part) above, with V555M counted along it

| GI50 [4] | IC50 [5] | IC50 [6] | GI50 [7] | SMILES | IC50 [1] | IC50 [2] | IC50 [3] |
| --- | --- | --- | --- | --- | --- | --- | --- |
| – | – | – | – | COc1ccc2nc(-c3c(N[C@@H](C)c4ncccn4)c4nn(C)cc4[nH]c3=O)[nH]c2c1 (single isomer, unassigned) [Compound 1, (S*)-6-(6-Methoxy-1H-benzo[d]imidazol-2-yl)-2-methyl-7-((1-(pyrimidin-2-yl)ethyl)-amino)-2H-pyrazolo[4,3-b]pyridin-5 (4H)-one] | 987 nM | 3.2 nM | 3.05 nM |
| 18.5 nM | – | – | – | CCC(Nc1c(-c2nc3ccc(OCCOC)cc3[nH]2)c(=O)[nH]c2cn(C)nc12)c1ncccn1 (single isomer, unassigned) [Compound 48, (S*)-6-(6-(2-methoxyethoxy)-1H-benzo[d]imidazol-2-yl)-2-methyl-7-((1-(pyrimidin-2-yl)-propyl)amino)-2H-pyrazolo[4,3-b]pyridin-5 (4H)-one] | 396 nM | – | – |
| – | 0.327 nM | 0.183 nM | – | CCOc1cc2[nH]c(-c3c(N[C@@H](C)c4ncccn4)c4nn(C)cc4[nH]c3=O)nc2cc1OC [Compound 7, (S)-6-(6-ethoxy-5-methoxy-1H-benzo[d]imidazol-2-yl)-2-methyl-7-((1-(pyrimidin-2-yl)ethyl)amino)-2,4-dihydro-5H-pyrazolo[4,3-b]pyridin-5-one] | 713 nM | 3.64 nM | 2.79 nM |
| – | 2.15 nM | 0.595 nM | 23.3 nM | C[C@H](Nc1c(-c2nc3ccc(F)cc3[nH]2)c(=O)[nH]c2cn(C)nc12)c1ncccn1 [Compound 28, (S)-6-(6-Fluoro-1H-benzo[d]imidazol-2-yl)-2-methyl-7-((1-(pyrimidin-2-yl)ethyl)amino)-2H-pyrazolo[4,3-b]pyridin-5 (4H)-one] | 2030 nM | – | – |
| – | 6.21 nM | 1.78 nM | 34.4 nM | CCn1cc2[nH]c(=O)c(-c3nc4c(OC)cc(OC)cc4[nH]3)c(N[C@@H](C)c3ncccn3)c2n1 [Compound 31, (S)-6-(4,6-dimethoxy-1H-benzo[d]imidazol-2-yl)-2-ethyl-7-((1-(pyrimidin-2-yl)ethyl)-amino)-2H-pyrazolo[4,3-b]pyridin-5 (4H)-one] | 1940 nM | – | – |
| – | 0.98 nM | 0.568 nM | 18.4 nM | CCn1cc2[nH]c(=O)c(-c3nc4cc(OC)c(OCCOC)cc4[nH]3)c(N[C@@H](C)c3ncccn3)c2n1 [Compound 38, (S)-2-ethyl-6-(5-methoxy-6-(2-methoxyethoxy)-1H-benzo[d]imidazol-2-yl)-7-((1-(pyrimidin-2-yl)ethyl)amino)-2H-pyrazolo[4,3-b]pyridin-5 (4H)-one] | 532 nM | – | – |
| – | 4.43 nM | 0.613 nM | 30.2 nM | CCn1cc2[nH]c(=O)c(-c3nc4cc(OC)c(OC)cc4[nH]3)c(N[C@@H](C)c3ccccn3)c2n1 [Compound 51, (S)-6-(5,6-dimethoxy-1H-benzo[d]imidazol-2-yl)-2-ethyl-7-((1-(pyridin-2-yl)ethyl)-amino)-2,4-dihydro-5H-pyrazolo[4,3-b]pyridin-5-one] | 1130 nM | – | – |
| – | 0.853 nM | 0.281 nM | – | CCOc1cc2nc(-c3c(N[C@@H](C)c4ncccn4)c4nn(CC)cc4[nH]c3=O)[nH]c2cc1OCC [Compound 52, (S)-6-(5,6-diethoxy-1H-benzo[d]imidazol-2-yl)-2-ethyl-7-((1-(pyrimidin-2-yl)ethyl)-amino)-2H-pyrazolo[4,3-b]pyridin-5 (4H)-one] | 653 nM | 5.66 nM | 6.67 nM |
| – | 0.957 nM | 0.392 nM | 17.4 nM | COc1cc2[nH]c(-c3c(N[C@@H](C)c4ncccn4)c4nn(C)cc4[nH]c3=O)nc2c(F)c1OC [Compound 55, (S)-6-(4-fluoro-5,6-dimethoxy-1H-benzo[d]imidazol-2-yl)-2-methyl-7-((1-(pyrimidin-2-yl)ethyl)amino)-2H-pyrazolo[4,3-b]pyridin-5 (4H)-one] | 2280 nM | 5.5 nM | 5.19 nM |
| – | 1.56 nM | 0.296 nM | – | COc1cc2nc(-c3c(N[C@@H](C)c4ccccn4)c4nn(C)cc4[nH]c3=O)[nH]c2cc1OC [Compound 56, (S)-6-(5,6-dimethoxy-1H-benzo[d]imidazol-2-yl)-2-methyl-7-((1-(pyridin-2-yl)ethyl)-amino)-2H-pyrazolo[4,3-b]pyridin-5 (4H)-one] | 857 nM | 7.92 nM | 5.16 nM |
